What was measured:
S1507-2 [1] = assay: relative IC50 (inflection point of fitted dose-response curve, CellTox-Green cytotoxicity, 72 h; top asymptote may be below 50%); higher = less potent
In short: (§1)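 For 72 h at 37 °C, MPNST cell lines and primary human Schwann cells were exposed in 384-well plates to five 10-fold compound dilutions. CellTox-Green, added before seeding at a final 1:1000 dilution, gave fluorescence from DNA released by disrupted cells. Signals were scaled to vehicle and positive-control wells, cultures failing plate quality control were left out, and four-parameter logistic fits were applied. Relative IC50 and drug sensitivity score were derived from the fits, with IC50 censored at the top concentration.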

HSC2 [2] = assay: as above
In short: as §1

STS26T [3] = assay: as above
In short: as §1

HS-PSS [4] = assay: as above
In short: as §1

S1507-2 [5] = assay: relative IC50 (inflection point of fitted dose-response curve, CellTiter-Glo viability, 72 h; top asymptote may be below 50% inhibition); higher = less potent
In short: (§2)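 After seeding 750–1000 cells per well of MPNST cell lines or primary human Schwann cells into 384-well plates preprinted with each compound at five concentrations in 10-fold steps, plates were kept 72 h at 37 °C, 5% CO2. Viability was read as CellTiter-Glo ATP luminescence relative to vehicle and positive-control wells, with duplicates averaged where present. The data were fitted with four-parameter logistic models. Drug sensitivity score and relative IC50, censored at the top concentration, derive from the fits, and percent inhibition refers to the top concentration.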

HSC2 [6] = assay: as above
In short: as §2

HSC1 [7] = assay: as above
In short: as §2

YST-1 = assay: as above
In short: as §2

HS-Sch-2 = assay: as above
In short: as §2

ST8814 [8] = assay: as above
In short: as §2

S462 = assay: as above
In short: as §2

STS26T [9] = assay: as above
In short: as §2

HS-PSS [10] = assay: as above
In short: as §2

HSC1 [11] = assay: relative IC50 (inflection point of fitted dose-response curve, CellTox-Green cytotoxicity, 72 h; top asymptote may be below 50%); higher = less potent
In short: as §1

ST8814 [12] = assay: as above
In short: as §1

Row | Compound | relative IC50 (S1507-2 [1]) [µM] | relative IC50 (HSC2 [2]) [µM] | relative IC50 (STS26T [3]) [µM] | relative IC50 (HS-PSS [4]) [µM] | relative IC50 (S1507-2 [5]) [µM] | relative IC50 (HSC2 [6]) [µM] | relative IC50 (HSC1 [7]) [µM] | relative IC50 (YST-1) [µM] | relative IC50 (HS-Sch-2) [µM] | relative IC50 (ST8814 [8]) [µM] | relative IC50 (S462) [µM] | relative IC50 (STS26T [9]) [µM] | relative IC50 (HS-PSS [10]) [µM] | relative IC50 (HSC1 [11]) [µM] | relative IC50 (ST8814 [12]) [µM]
1 | COc1cc(O)c2c(c1)/C=C/C[C@H](O)[C@H](O)C(=O)/C=C\C[C@H](C)OC2=O [(5Z)-7-Oxozeaenol] | 3.52 | 3.9 | 3.07 | > 10 | 2.45 | 1.32 | 1.69 | 2.02 | 2.79 | 1.33 | 1.66 | 1.36 | 3.82 | – | –
2 | CC(=O)O[C@]1(C(C)=O)CC[C@H]2[C@@H]3C=C(C)C4=CC(=O)CC[C@]4(C)[C@H]3CC[C@@]21C [Megestrol] | > 10 | > 10 | > 10 | – | > 10 | > 10 | > 10 | – | – | > 10 | > 10 | > 10 | – | > 10 | > 10
3 | C=CCc1cccc(/C=N/NC(=O)CN2CCN(Cc3ccccc3)CC2)c1O [PAC-1] | > 10 | > 10 | > 10 | 2.02 | 3.66 | 1.37 | 1.89 | 2.43 | 1.13 | 2.92 | 3.49 | 2.53 | 2.32 | > 10 | –
4 | Cc1cn(-c2cc(NC(=O)c3ccc(C)c(Nc4nccc(-c5cccnc5)n4)c3)cc(C(F)(F)F)c2)cn1 [Nilotinib] | > 10 | – | > 10 | > 10 | > 10 | > 10 | > 10 | – | – | > 10 | > 10 | > 10 | – | > 10 | > 10
5 | CCCCCOC(=O)Nc1nc(=O)n([C@@H]2O[C@H](C)[C@@H](O)[C@H]2O)cc1F [Capecitabine] | > 10 | > 10 | > 10 | > 10 | > 10 | > 10 | > 10 | > 10 | > 10 | > 10 | > 10 | – | > 10 | > 10 | > 10
6 | C[C@H]1C=C2C(=O)O[C@H]3CC[C@@H](C1)[C@@]23O [Galiellalactone] | 15.7 | > 50 | 14.6 | > 25 | 9.35 | 9.86 | 5.26 | 9.96 | 4.62 | 10.1 | 8.04 | 7.72 | 6.45 | – | > 50
7 | COc1cc2c(cc1O)CC[C@@H]1[C@@H]2CC[C@]2(C)[C@@H](O)CC[C@@H]12 [2-methoxyestradiol] | 1.66 | 1.5 | 1.02 | > 10 | 1.86 | 1.23 | 1.17 | 1.65 | 0.841 | 2.58 | 0.747 | 0.922 | 3.06 | – | 3.13
8 | COc1cc(OC2CCN(C)CC2)ccc1Nc1ncc2c(n1)n(C1CCCC1)c(=O)n2C [AZ 3146] | 3.51 | – | 1.95 | 3.14 | 2.69 | 3.34 | 3.38 | 1.48 | 1.67 | 2.58 | 0.964 | 1.25 | 1.85 | > 10 | 2.96
9 | CC(C)Cn1cnc2c(N)nc3ccccc3c21 [Imiquimod] | > 2.5 | > 2.5 | > 2.5 | > 2.5 | > 2.5 | > 2.5 | > 2.5 | > 2.5 | – | > 2.5 | > 2.5 | > 2.5 | – | > 2.5 | > 2.5
10 | COc1ccc(-c2ccc3c(N4CCOC[C@@H]4C)nc(N4CCOC[C@@H]4C)nc3n2)cc1CO [AZD8055] | > 10 | > 10 | > 10 | – | 0.0511 | 0.028 | 0.0299 | 0.0205 | 0.0833 | 0.138 | 0.0248 | 0.0695 | 0.0917 | > 10 | –
11 | O=C(O)C1(C(=O)O)CCC1.[NH2-].[NH2-].[Pt+2] [Carboplatin aq] | 37.3 | 20.5 | 27.3 | – | 20.6 | 14.6 | 14.5 | – | – | 24.4 | 17 | 19.5 | – | 27.6 | 25.1
12 | CCN(CCO)CCCOc1ccc2c(Nc3cc(CC(=O)Nc4cccc(F)c4)[nH]n3)ncnc2c1 [AZD1152-HQPA] | > 1 | – | 0.161 | > 1 | 0.107 | 0.0352 | 0.0223 | 0.0057 | > 1 | 0.152 | 0.00543 | 0.0856 | – | > 1 | 0.206
13 | c1ccc2c(CCNc3ccc(Nc4ccncc4)cc3)c[nH]c2c1 [Serdemetan] | 2.81 | > 10 | 3.31 | 3.24 | 1.62 | 1.35 | 1.37 | 0.876 | 3.74 | 0.887 | 1.15 | 2.44 | 2.71 | – | 0.865
14 | CS(=O)(=O)CCNCc1ccc(-c2ccc3ncnc(Nc4ccc(OCc5cccc(F)c5)c(Cl)c4)c3c2)o1 [Lapatinib] | > 1 | > 1 | > 1 | > 1 | > 1 | > 1 | > 1 | – | > 1 | > 1 | > 1 | – | > 1 | > 1 | > 1
15 | C=CC(=O)N1CCC[C@@H](n2nc(-c3ccc(Oc4ccccc4)cc3)c3c(N)ncnc32)C1 [Ibrutinib] | > 1 | > 1 | > 1 | > 1 | > 1 | > 1 | > 1 | > 1 | > 1 | > 1 | > 1 | > 1 | – | > 1 | > 1
16 | CS(=O)(=O)c1ccc(C(=O)Nc2ccc(Cl)c(-c3ccccn3)c2)c(Cl)c1 [Vismodegib] | > 10 | > 10 | > 10 | > 10 | > 10 | > 10 | > 10 | – | – | > 10 | > 10 | > 10 | – | – | > 10
17 | CCN(CC)CCCC(C)Nc1ccnc2cc(Cl)ccc12 (stereo not given) [Chloroquine aq] | 3.28 | 19.9 | 3.19 | – | 1.8 | 13.1 | 12.3 | – | – | 3.1 | 6.94 | 5.43 | – | 15.8 | 2.82
18 | COC1=C2C[C@@H](C)C[C@H](OC)[C@H](O)[C@@H](C)/C=C(\C)[C@H](OC(N)=O)[C@@H](OC)/C=C\C=C(/C)C(=O)NC(=CC1=O)C2=O [Geldanamycin] | 2.65 | 0.211 | 1.16 | – | 1.69 | 0.338 | 0.363 | – | – | 0.765 | 0.454 | 0.78 | – | 0.204 | 1.32
19 | Cc1cc2c(C(C)C)c(O)c(O)c(C=O)c2c(O)c1-c1c(C)cc2c(C(C)C)c(O)c(O)c(C=O)c2c1O [AT 101] | > 100 | > 100 | > 100 | 30.3 | 16.3 | 1.74 | 3.72 | 5.3 | 5.35 | 7.15 | 3.79 | 8.98 | 15.3 | 10.7 | –
20 | CN(C)C[C@@H]1CCn2cc(c3ccccc32)C2=C(C(=O)NC2=O)c2cn(c3ccccc23)CCO1 [Ruboxistaurin] | 2.96 | 1.88 | 2.43 | 3.67 | 2.17 | 1.97 | 3.29 | 1.36 | 3.42 | 1.2 | 2.08 | 2.98 | 2.89 | 2.06 | –
21 | COc1cc2c(cc1-c1c(C)noc1C)ncc1[nH]c(=O)n([C@H](C)c3ccccn3)c12 [I-BET151] | 1.4 | > 10 | > 10 | > 10 | 1.25 | 1.15 | 0.992 | 1.07 | 1.06 | 0.918 | 1.31 | 1.13 | 1.71 | – | 1.24
22 | Cc1sc2c(c1C)C(c1ccc(Cl)cc1)=N[C@@H](CC(=O)OC(C)(C)C)c1nnc(C)n1-2 [(+)JQ1] | 0.546 | > 10 | > 10 | – | 0.161 | 0.462 | 0.42 | – | – | 0.208 | 0.386 | 0.226 | – | > 10 | 0.404
23 | N#Cc1ccc(C(c2ccc(C#N)cc2)n2cncn2)cc1 [Letrozole] | > 10 | > 10 | > 10 | > 10 | > 10 | > 10 | > 10 | > 10 | – | > 10 | > 10 | > 10 | – | > 10 | > 10
24 | Cc1ccc(NC(=O)c2ccc(CN3CCN(C)CC3)cc2)cc1Nc1nc(-c2cccnc2)cs1 [Masitinib] | 3.51 | – | 3.34 | 3.85 | 2.06 | 2.6 | 3.4 | 2.33 | 3.27 | 3.23 | 3.3 | 3.37 | 1.83 | 3.82 | 3.22
25 | CCNC(=O)c1noc(-c2cc(C(C)C)c(O)cc2O)c1-c1ccc(CN2CCOCC2)cc1 [NVP-AUY922] | 0.0139 | 0.0204 | 0.0421 | – | 0.0183 | 0.012 | 0.0143 | – | – | 0.0229 | 0.0217 | 0.0229 | – | 0.0232 | 0.0679
26 | Cn1cncc1[C@@](N)(c1ccc(Cl)cc1)c1ccc2c(c1)c(-c1cccc(Cl)c1)cc(=O)n2C [Tipifarnib] | > 10 | > 10 | 0.342 | > 10 | 0.0975 | 0.585 | 1.35 | 0.175 | 1.51 | 0.366 | 0.51 | 0.351 | 0.683 | – | –
27 | CC[C@@]1(O)C(=O)OCc2c1cc1n(c2=O)Cc2cc3ccccc3nc2-1 [Camptotechin] | 0.244 | 0.136 | 0.126 | – | 0.1 | 0.0405 | 0.0473 | – | – | 0.0307 | 0.0302 | 0.0628 | – | 0.0757 | 0.0146
28 | CCN(CC)CCCC(C)Nc1c2ccc(Cl)cc2nc2ccc(OC)cc12 (stereo not given) [Mepacrine aq] | 2.2 | 1.17 | 2.37 | – | 1.07 | 1.23 | 1.23 | – | – | 0.929 | 0.918 | 1.32 | – | 0.956 | 2.91

— the supplement of paper PMC5579334
